Laboratory results published in the supplement of paper PMC10307832.

What was measured:
Test in all cases: relative viability (nuclei count vs DMSO), 5 days (fraction); higher = more cells survive
[1] = compound: Cn1cc(-c2cnn3c(N)c(Br)c([C@@H]4CCCNC4)nc23)cn1
Method in brief: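 Five library-drug doses spaced by √10 were pinned onto vehicle-anchored 1536-well plates of lung cancer cell lines that had been kept overnight at 37 °C. Cells went 5 days without medium change, then were fixed, permeabilised and Hoechst-stained together, imaged at 4× and counted by MetaXpress. Viability is the ratio of treated-well to vehicle-well nuclei, taken as a median over plates. Plates required control CV below 25% and at least one doubling.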

[2] = compound: Cn1cc(-c2cnn3c(N)c(Br)c([C@@H]4CCCNC4)nc23)cn1 + Cc1cc(Nc2cc(N3CCN(C)CC3)nc(Sc3ccc(NC(=O)C4CC4)cc3)n2)n[nH]1 [Tozasertib] (partner 0.1 µM)
Method in brief: (§1)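 Lung cancer cell lines were seeded in 1536-well plates and dosed by pin tool the next day, with either a single drug or a fixed anchor-drug dose combined with five library-drug doses (not always all listed) spaced in √10 steps. Five days later, one step fixed the cells and stained their nuclei (final 0.05% Triton X-100, 1% formaldehyde, 1 ug/ml Hoechst), and nuclei were counted on 4× images. Relative viability is the nuclei count in treated wells divided by the count in vehicle wells, and each value is the median of duplicate plates.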

[3] = compound: Cn1cc(-c2cnn3c(N)c(Br)c([C@@H]4CCCNC4)nc23)cn1 + CC(=O)Nc1cccc(-n2c(=O)n(C3CC3)c(=O)c3c(Nc4ccc(I)cc4F)n(C)c(=O)c(C)c32)c1 [Trametinib] (partner 0.02 µM)
Method in brief: as §1

[4] = compound: Cn1cc(-c2cnn3c(N)c(Br)c([C@@H]4CCCNC4)nc23)cn1 + NC(=O)Nc1cc(-c2cccc(F)c2)sc1C(=O)N[C@H]1CCCNC1 [AZD7762] (partner 0.2 µM)
Method in brief: as §1

Row | Cell Line | relative viability ([1]; 0.05 µM) | relative viability ([1]; 0.1581 µM) | relative viability ([1]; 0.5 µM) | relative viability ([1]; 1.581 µM) | relative viability ([1]; 5 µM) | relative viability ([2]; first compound 0.05 µM) | relative viability ([2]; first compound 0.1581 µM) | relative viability ([2]; first compound 0.5 µM) | relative viability ([2]; first compound 1.581 µM) | relative viability ([2]; first compound 5 µM) | relative viability ([3]; first compound 0.05 µM) | relative viability ([3]; first compound 0.1581 µM) | relative viability ([3]; first compound 0.5 µM) | relative viability ([3]; first compound 1.581 µM) | relative viability ([3]; first compound 5 µM) | relative viability ([4]; first compound 0.05 µM) | relative viability ([4]; first compound 0.1581 µM) | relative viability ([4]; first compound 0.5 µM) | relative viability ([4]; first compound 1.581 µM) | relative viability ([4]; first compound 5 µM)
1 | H3255 | 1.02 | 0.935 | 1.03 | 0.974 | 0.57 | 0.614 | 0.569 | 0.727 | 0.224 | 0.447 | 0.694 | 0.534 | 0.668 | 0.633 | 0.405 | 0.978 | 0.896 | 1.05 | 0.746 | 0.527
2 | EPLC-272H | 1 | 0.974 | 0.896 | 0.628 | 0.379 | 0.252 | 0.249 | 0.25 | 0.247 | 0.226 | 0.276 | 0.273 | 0.286 | 0.272 | 0.218 | 0.13 | 0.195 | 0.179 | 0.17 | 0.178
3 | PC-3 [JPC-3] | 0.957 | 1.01 | 1.01 | 1.02 | 1.03 | 0.812 | 0.986 | 0.94 | 0.75 | 0.91 | 0.693 | 0.705 |  | 0.642 | 0.608 | 0.774 | 0.766 |  | 0.616 | 0.637
4 | NCI-H1793 | 1.07 | 1.12 | 0.927 | 0.91 | 0.786 | 0.39 | 0.806 | 0.282 | 0.341 | 0.2 | 0.451 | 0.36 | 0.367 | 0.481 | 0.458 | 0.598 | 0.466 | 0.422 | 0.397 | 0.183
5 | EKVX | 1.04 | 1.01 | 1.07 | 0.862 | 0.929 | 0.423 | 0.449 | 0.448 | 0.462 | 0.344 | 0.445 | 0.317 | 0.413 | 0.377 | 0.409 | 0.76 | 0.75 | 0.711 | 0.603 | 0.537
6 | ChaGo-K-1 | 0.99 | 1.08 | 1.09 | 0.89 | 0.997 | 0.222 | 0.22 | 0.227 | 0.224 | 0.225 | 0.926 | 0.925 | 0.874 | 0.806 | 0.972 | 0.843 | 0.801 | 0.866 | 0.761 | 0.755
7 | NCI-H23 | 0.91 | 1.02 | 0.925 | 0.573 | 0.272 | 0.247 | 0.878 | 0.399 | 0.311 | 0.179 | 0.364 | 0.401 | 0.304 | 0.355 | 0.178 | 0.253 | 0.273 | 0.25 | 0.162 | 0.123
8 | EMC-BAC-2 | 0.917 | 1.03 | 0.976 | 0.949 | 0.827 | 0.277 | 0.292 | 0.251 | 0.252 | 0.218 | 0.885 | 0.664 | 0.927 | 0.878 | 0.515 | 1.05 | 1.26 | 1.08 | 1.04 | 0.821
9 | LOU-NH91 | 0.949 | 0.985 | 0.937 | 0.952 | 0.811 | 0.585 | 0.585 | 0.609 | 0.683 | 0.497 | 0.804 | 0.776 | 0.751 | 0.749 | 0.665 | 0.373 | 0.744 | 0.761 | 0.727 | 0.642
10 | LU99A | 0.952 | 0.985 | 0.901 | 0.949 | 0.926 | 0.271 | 0.243 | 0.258 | 0.243 | 0.193 | 0.464 | 0.572 | 0.599 | 0.492 | 0.518 | 0.371 | 0.392 | 0.304 | 0.264 | 0.224
11 | NCI-H1395 | 0.813 | 0.713 | 0.926 | 0.548 | 0.45 | 0.804 | 0.68 | 0.789 | 0.543 | 0.436 | 1.22 | 0.544 | 0.883 | 0.569 | 0.444 | 0.397 | 0.393 | 0.372 | 0.372 | 0.351
12 | NCI-H460 | 0.946 | 1.1 | 0.993 | 0.952 | 0.811 | 0.421 | 0.482 | 0.537 | 0.475 | 0.222 | 0.152 | 0.209 | 0.0974 | 0.0913 | 0.0615 | 0.496 | 0.579 | 0.603 | 0.757 | 0.519
13 | 201T | 0.972 | 1.01 | 0.996 | 0.86 | 0.746 | 0.932 | 0.992 | 0.898 | 0.776 | 0.758 | 0.692 | 0.751 | 0.687 | 0.722 | 0.7 | 0.597 | 0.618 | 0.661 | 0.506 | 0.498
14 | NCI-H1944 | 0.947 | 1.07 | 0.929 | 0.713 | 0.481 | 0.263 | 0.273 | 0.255 | 0.241 | 0.21 | 0.406 | 0.382 | 0.39 | 0.374 | 0.379 | 0.608 | 0.491 | 0.466 | 0.423 | 0.341
15 | NCI-H2405 | 0.935 | 1.01 | 0.959 | 0.983 | 0.769 | 0.733 | 0.784 | 0.723 | 0.743 | 0.498 | 0.642 | 0.644 | 0.553 | 0.577 | 0.455 | 0.682 | 0.75 | 0.659 | 0.476 | 0.501
16 | NCI-H1703 | 0.925 | 0.664 | 0.529 | 0.347 | 0.159 |  |  |  |  |  |  |  |  |  |  | 0.0942 | 0.119 | 0.139 | 0.102 | 0.098
